Assay results: US11878965B2, “Inhibitors of peptidylarginine deiminases” (Gilead Sciences, Inc., priority 2020, dated 2024)

Target: human PAD4 (Homo sapiens (Human), UniProt Q9UM07)
Assay: In Vitro PAD4 BAEE Biochemical Assay
Settings: human PAD4, BAEE substrate; 5 nM PAD4, 2 mM calcium chloride, 3 mM BAEE; geometric mean of multiple experiments
Procedure, shortened: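 Recombinant human PAD4 (His-SUMO tag removed, E. coli-expressed), 5 nM, preincubated with compound and 2 mM CaCl2 30 min at 25 °C in MOPS pH 7.6 with DTT; 3 mM BAEE added for 2 h at 25 °C, EDTA stop. Released ammonia detected by o-phthalaldehyde/DTT fluorescence (ex 405, em 535 nm).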

human PAD4, sequence (Q9UM07 2-663): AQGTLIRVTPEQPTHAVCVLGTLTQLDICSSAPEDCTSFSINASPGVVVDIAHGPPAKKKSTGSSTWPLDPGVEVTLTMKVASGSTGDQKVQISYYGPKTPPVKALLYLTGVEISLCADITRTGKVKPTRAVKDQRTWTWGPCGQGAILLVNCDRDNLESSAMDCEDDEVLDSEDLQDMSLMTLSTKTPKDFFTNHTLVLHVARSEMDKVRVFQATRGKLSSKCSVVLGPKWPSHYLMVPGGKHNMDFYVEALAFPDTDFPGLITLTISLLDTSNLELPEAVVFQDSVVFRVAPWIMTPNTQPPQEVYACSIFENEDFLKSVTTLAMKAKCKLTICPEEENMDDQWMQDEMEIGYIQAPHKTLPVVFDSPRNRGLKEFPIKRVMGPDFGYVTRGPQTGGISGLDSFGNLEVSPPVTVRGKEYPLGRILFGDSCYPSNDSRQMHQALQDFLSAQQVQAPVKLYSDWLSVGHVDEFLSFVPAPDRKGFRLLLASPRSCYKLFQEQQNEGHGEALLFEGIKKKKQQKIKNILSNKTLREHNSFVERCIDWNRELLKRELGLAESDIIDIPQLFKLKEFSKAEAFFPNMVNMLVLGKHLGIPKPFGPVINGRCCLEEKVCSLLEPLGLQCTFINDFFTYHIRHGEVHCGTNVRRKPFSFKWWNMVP

Compound | IC50 [nM]
COc1cc(C(=O)N2C[C@H](N)CCN2C)cc2nc(-c3cc4ccc([C@@H](C)NC(=O)C5CC(F)(F)C5)nc4n3CC3CC3)n(C)c12 [Example 162, N-((R)-1-(2-(5-((R)-5-amino-2-methylhexahydropyridazine-1-carbonyl)-7-methoxy-1-methyl-1H-benzo[d]imidazol-2-yl)-1-(cyclopropylmethyl)-1H-pyrrolo[2,3-b]pyridin-6-yl)ethyl)-3,3-difluorocyclobutane-1-carboxamide] | 92.1
COc1cc(C(=O)N2C[C@H](N)CCN2C)cc2nc(-c3cc4ccc([C@@H](C)NC(=O)C5(c6ccc(C(F)(F)F)cc6)CC5)nc4n3CC3CC3)n(C)c12 [Example 163, N-((R)-1-(2-(5-((R)-5-amino-2-methylhexahydropyridazine-1-carbonyl)-7-methoxy-1-methyl-1H-benzo[d]imidazol-2-yl)-1-(cyclopropylmethyl)-1H-pyrrolo[2,3-b]pyridin-6-yl)ethyl)-1-(4-(trifluoromethyl)phenyl)cyclopropane-1-carboxamide] | 4050
COc1cc(C(=O)N2C[C@H](N)CCN2C)cc2nc(-c3cc4ccc([C@@H](C)NC(=O)[C@H](C)c5ccccc5)nc4n3CC3CC3)n(C)c12 [Example 164, (R)-N-((R)-1-(2-(5-((R)-5-amino-2-methylhexahydropyridazine-1-carbonyl)-7-methoxy-1-methyl-1H-benzo[d]imidazol-2-yl)-1-(cyclopropylmethyl)-1H-pyrrolo[2,3-b]pyridin-6-yl)ethyl)-2-phenylpropanamide] | 148
COc1cc(C(=O)N2C[C@H](N)CCN2C)cc2nc(-c3cc4ccc([C@@H](C)NC(=O)[C@@H](C)c5ccccc5)nc4n3CC3CC3)n(C)c12 [Example 165, (S)-N-((R)-1-(2-(5-((R)-5-amino-2-methylhexahydropyridazine-1-carbonyl)-7-methoxy-1-methyl-1H-benzo[d]imidazol-2-yl)-1-(cyclopropylmethyl)-1H-pyrrolo[2,3-b]pyridin-6-yl)ethyl)-2-phenylpropanamide] | 91.4
COc1cc(C(=O)N2C[C@H](N)CCN2C)cc2nc(-c3cc4ccc([C@@H](C)NC(=O)c5ccccc5C(F)F)nc4n3CC3CC3)n(C)c12 [Example 166, N-((R)-1-(2-(5-((R)-5-amino-2-methylhexahydropyridazine-1-carbonyl)-7-methoxy-1-methyl-1H-benzo[d]imidazol-2-yl)-1-(cyclopropylmethyl)-1H-pyrrolo[2,3-b]pyridin-6-yl)ethyl)-2-(difluoromethyl)benzamide] | 180
COc1cc(C(=O)N2C[C@H](N)CCN2C)cc2nc(-c3cc4ccc([C@@H](C)NC(=O)C(F)(F)c5ccccc5)nc4n3CC3CC3)n(C)c12 [Example 167, N-((R)-1-(2-(5-((R)-5-amino-2-methylhexahydropyridazine-1-carbonyl)-7-methoxy-1-methyl-1H-benzo[d]imidazol-2-yl)-1-(cyclopropylmethyl)-1H-pyrrolo[2,3-b]pyridin-6-yl)ethyl)-2,2-difluoro-2-phenylacetamide] | 388
COc1cc(C(=O)N2C[C@H](N)CCN2C)cc2nc(-c3cc4ccc([C@@H](C)NC(=O)[C@@H]5CC5(F)F)nc4n3CC3CC3)n(C)c12 [Example 168, (S)-N-((R)-1-(2-(5-((R)-5-amino-2-methylhexahydropyridazine-1-carbonyl)-7-methoxy-1-methyl-1H-benzo[d]imidazol-2-yl)-1-(cyclopropylmethyl)-1H-pyrrolo[2,3-b]pyridin-6-yl)ethyl)-2,2-difluorocyclopropane-1-carboxamide] | 102
COc1cc(C(=O)N2C[C@H](N)CCN2C)cc2nc(-c3cc4ccc([C@@H](C)NC(=O)c5c(C)cccc5C)nc4n3CC3CC3)n(C)c12 [Example 172, N-((R)-1-(2-(5-((R)-5-amino-2-methylhexahydropyridazine-1-carbonyl)-7-methoxy-1-methyl-1H-benzo[d]imidazol-2-yl)-1-(cyclopropylmethyl)-1H-pyrrolo[2,3-b]pyridin-6-yl)ethyl)-2,6-dimethylbenzamide] | 147
COc1cc(C(=O)N2[C@H]3CC[C@@H]2[C@H](N)C3)cc2nc(-c3cc4ccc([C@@H](C)NC(=O)C5(n6cccn6)CC5)nc4n3CC3CC3)n(C)c12 [Example 173, N-((R)-1-(2-(5-((1R,2R,4S)-2-amino-7-azabicyclo[2.2.1]heptane-7-carbonyl)-7-methoxy-1-methyl-1H-benzo[d]imidazol-2-yl)-1-(cyclopropylmethyl)-1H-pyrrolo[2,3-b]pyridin-6-yl)ethyl)-1-(1H-pyrazol-1-yl)cyclopropane-1-carboxamide] | 96.7
COc1cc(C(=O)N2[C@H]3CC[C@@H]2[C@H](N)C3)cc2nc(-c3cc4ccc([C@@H](C)NC(=O)Cn5cccn5)nc4n3CC3CC3)n(C)c12 [Example 174, N-((R)-1-(2-(5-((1R,2R,4S)-2-amino-7-azabicyclo[2.2.1]heptane-7-carbonyl)-7-methoxy-1-methyl-1H-benzo[d]imidazol-2-yl)-1-(cyclopropylmethyl)-1H-pyrrolo[2,3-b]pyridin-6-yl)ethyl)-2-(1H-pyrazol-l-yl)acetamide] | 45.1
COc1cc(C(=O)N2C[C@H](N)CCN2C)cc2nc(-c3cc4ccc([C@@H](C)NC(=O)c5ncccc5C)nc4n3CC3CC3)n(C)c12 [Example 175, N-((R)-1-(2-(5-((R)-5-amino-2-methylhexahydropyridazine-1-carbonyl)-7-methoxy-1-methyl-1H-benzo[d]imidazol-2-yl)-1-(cyclopropylmethyl)-1H-pyrrolo[2,3-b]pyridin-6-yl)ethyl)-3-methylpicolinamide] | 139
COc1cc(C(=O)N2C[C@H](N)CCN2C)cc2nc(-c3cc4ccc([C@@H](C)NC(=O)c5nc(C)ccc5C)nc4n3CC3CC3)n(C)c12 [Example 176, N-((R)-1-(2-(5-((R)-5-amino-2-methylhexahydropyridazine-1-carbonyl)-7-methoxy-1-methyl-1H-benzo[d]imidazol-2-yl)-1-(cyclopropylmethyl)-1H-pyrrolo[2,3-b]pyridin-6-yl)ethyl)-3,6-dimethylpicolinamide] | 231
COc1cc(C(=O)N2C[C@H](N)CCN2C)cc2nc(-c3cc4ccc([C@@H](C)NC(=O)c5cccnc5C)nc4n3CC3CC3)n(C)c12 [Example 177, N-((R)-1-(2-(5-((R)-5-amino-2-methylhexahydropyridazine-1-carbonyl)-7-methoxy-1-methyl-1H-benzo[d]imidazol-2-yl)-1-(cyclopropylmethyl)-1H-pyrrolo[2,3-b]pyridin-6-yl)ethyl)-2-methylnicotinamide] | 90.8

Continued, values first:

IC50 [nM] | Compound
47.8 | COc1cc(C(=O)N2C[C@H](N)CCN2C)cc2nc(-c3cc4ccc([C@@H](C)NC(=O)c5cnn(C)c5)nc4n3CC3CC3)n(C)c12 [Example 169, N-((R)-1-(2-(5-((R)-5-amino-2-methylhexahydropyridazine-1-carbonyl)-7-methoxy-1-methyl-1H-benzo[d]imidazol-2-yl)-1-(cyclopropylmethyl)-1H-pyrrolo[2,3-b]pyridin-6-yl)ethyl)-1-methyl-1H-pyrazole-4-carboxamide]
67.1 | COc1cc(C(=O)N2C[C@H](N)CCN2C)cc2nc(-c3cc4ccc([C@@H](C)NC(=O)c5cnn(C(F)F)c5)nc4n3CC3CC3)n(C)c12 [Example 170, N-((R)-1-(2-(5-((R)-5-amino-2-methylhexahydropyridazine-1-carbonyl)-7-methoxy-1-methyl-1H-benzo[d]imidazol-2-yl)-1-(cyclopropylmethyl)-1H-pyrrolo[2,3-b]pyridin-6-yl)ethyl)-1-(difluoromethyl)-1H-pyrazole-4-carboxamide]
90.2 | COc1cc(C(=O)N2C[C@H](N)CCN2C)cc2nc(-c3cc4ccc([C@@H](C)NC(=O)C56CC(F)(C5)C6)nc4n3CC3CC3)n(C)c12 [Example 171, N-((R)-1-(2-(5-((R)-5-amino-2-methylhexahydropyridazine-1-carbonyl)-7-methoxy-1-methyl-1H-benzo[d]imidazol-2-yl)-1-(cyclopropylmethyl)-1H-pyrrolo[2,3-b]pyridin-6-yl)ethyl)-3-fluorobicyclo[1.1.1]pentane-1-carboxamide]
80.4 | COc1cc(C(=O)N2C[C@H](N)CCN2C)cc2nc(-c3cc4ccc([C@@H](C)NC(=O)c5c(C)ccnc5C)nc4n3CC3CC3)n(C)c12 [Example 178, N-((R)-1-(2-(5-((R)-5-amino-2-methylhexahydropyridazine-1-carbonyl)-7-methoxy-1-methyl-1H-benzo[d]imidazol-2-yl)-1-(cyclopropylmethyl)-1H-pyrrolo[2,3-b]pyridin-6-yl)ethyl)-2,4-dimethylnicotinamide]
77.5 | COc1cc(C(=O)N2C[C@H](N)CCN2C)cc2nc(-c3cc4ccc([C@@H](C)NC(=O)c5cc(C)nc(C)c5)nc4n3CC3CC3)n(C)c12 [Example 179, N-((R)-1-(2-(5-((R)-5-amino-2-methylhexahydropyridazine-1-carbonyl)-7-methoxy-1-methyl-1H-benzo[d]imidazol-2-yl)-1-(cyclopropylmethyl)-1H-pyrrolo[2,3-b]pyridin-6-yl)ethyl)-2,6-dimethylisonicotinamide]
28.8 | COc1cc(C(=O)N2C[C@H](N)CCN2C)cc2nc(-c3cc4ccc([C@@H](C)NC(=O)c5ncccn5)nc4n3CC3CC3)n(C)c12 [Example 180, N-((R)-1-(2-(5-((R)-5-amino-2-methylhexahydropyridazine-1-carbonyl)-7-methoxy-1-methyl-1H-benzo[d]imidazol-2-yl)-1-(cyclopropylmethyl)-1H-pyrrolo[2,3-b]pyridin-6-yl)ethyl)pyrimidine-2-carboxamide]
74.9 | COc1cc(C(=O)N2C[C@H](N)CCN2C)cc2nc(-c3cc4ccc([C@@H](C)NC(=O)c5nccc(C)n5)nc4n3CC3CC3)n(C)c12 [Example 181, N-((R)-1-(2-(5-((R)-5-amino-2-methylhexahydropyridazine-1-carbonyl)-7-methoxy-1-methyl-1H-benzo[d]imidazol-2-yl)-1-(cyclopropylmethyl)-1H-pyrrolo[2,3-b]pyridin-6-yl)ethyl)-4-methylpyrimidine-2-carboxamide]
